We go through 22 molecules from ChEMBL document CHEMBL4425171, “Cholinesterase inhibitory activity of chlorophenoxy derivatives-Histamine H3 receptor ligands” (Bioorg Med Chem Lett, 2016).

Experiment [1] deals with T1, Cholinesterase (Equus caballus, UniProt P81908). As to the kind of experiment: Inhibition of equine serum BChE using butyrylthiocholine chloride as substrate preincubated for 4.5 mins followed by substrate addition measured after 2.5 mins by Ellmans method. For orientation: DTNB colorimetry detects thiols as they appear.
The target of experiment [2] is T1, Cholinesterase.
Description: Inhibition of equine serum BChE using butyrylthiocholine chloride as substrate preincubated for 5 mins followed by substrate addition measured after 5 mins by Ellmans method
Experiment [3] addresses Acetylcholinesterase (Electrophorus electricus, UniProt O42275). As to the kind of experiment: Inhibition of electric eel AChE using acetylthiocholine iodide as substrate preincubated for 5 mins followed by substrate addition measured after 5 mins by Ellmans method.
The target in experiment [4] is Cholinesterase (Equus caballus) (UniProt P81908). As to the kind of experiment: Inhibition of equine serum BChE using butyrylthiocholine chloride as substrate at 10 uM preincubated for 5 mins followed by substrate addition measured after 5 mins by Ellmans method.
The target of experiment [5] is Acetylcholinesterase (Electrophorus electricus) (UniProt O42275). As to the kind of experiment: Inhibition of electric eel AChE using acetylthiocholine iodide as substrate at 10 uM preincubated for 5 mins followed by substrate addition measured after 5 mins by Ellmans method.
The target is the same in experiment [6]. As to the kind of experiment: Mixed-type inhibition of electric eel AChE using acetylthiocholine iodide as substrate at 5 to 20 uM by Lineweaver-Burk double reciprocal plot analysis.
The target in experiment [7] is Cholinesterase (Equus caballus) (UniProt P81908). As to the kind of experiment: Non-competitive inhibition of equine serum BChE using butyrylthiocholine chloride as substrate at 2 to 5 uM by Lineweaver-Burk double reciprocal plot analysis.
In experiment [8] the target is Acetylcholinesterase (Electrophorus electricus) (UniProt O42275). As to the kind of experiment: Mixed-type inhibition of electric eel AChE using acetylthiocholine iodide as substrate at 2 to 10 uM by Lineweaver-Burk double reciprocal plot analysis.
Experiment [9] has as its target Histamine H3 receptor (Homo sapiens, UniProt Q9Y5N1). The experiment can be described thus: biochemical.
Description: Displacement of [3H]Nalpha-methylhistamine from human full length recombinant histamine H3 receptor expressed in HEK293 cell membranes after 90 mins by liquid scintillation counting method

Active and inactive are the calls of the source. No cut-off for these calls is given here.

Acetylcholinesterase, sequence (O42275 whole entry): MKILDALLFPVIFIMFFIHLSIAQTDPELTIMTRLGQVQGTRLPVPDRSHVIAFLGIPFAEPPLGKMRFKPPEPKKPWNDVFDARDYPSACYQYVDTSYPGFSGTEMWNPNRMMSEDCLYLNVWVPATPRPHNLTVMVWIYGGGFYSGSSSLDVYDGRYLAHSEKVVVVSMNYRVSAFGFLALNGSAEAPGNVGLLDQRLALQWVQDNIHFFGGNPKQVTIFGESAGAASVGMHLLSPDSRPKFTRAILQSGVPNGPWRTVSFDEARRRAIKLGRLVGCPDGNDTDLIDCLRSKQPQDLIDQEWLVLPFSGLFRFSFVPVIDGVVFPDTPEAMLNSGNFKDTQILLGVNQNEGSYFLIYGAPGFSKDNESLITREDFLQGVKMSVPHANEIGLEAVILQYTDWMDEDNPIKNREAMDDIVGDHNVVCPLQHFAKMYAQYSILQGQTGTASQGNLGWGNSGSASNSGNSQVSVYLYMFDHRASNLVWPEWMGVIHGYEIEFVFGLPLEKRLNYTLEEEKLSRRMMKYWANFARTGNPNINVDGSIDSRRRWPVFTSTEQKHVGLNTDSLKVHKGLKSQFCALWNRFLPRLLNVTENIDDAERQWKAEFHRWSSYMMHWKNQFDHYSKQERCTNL
Acetylcholinesterase (Electrophorus electricus), sequence (O42275 24-633 limits assumed): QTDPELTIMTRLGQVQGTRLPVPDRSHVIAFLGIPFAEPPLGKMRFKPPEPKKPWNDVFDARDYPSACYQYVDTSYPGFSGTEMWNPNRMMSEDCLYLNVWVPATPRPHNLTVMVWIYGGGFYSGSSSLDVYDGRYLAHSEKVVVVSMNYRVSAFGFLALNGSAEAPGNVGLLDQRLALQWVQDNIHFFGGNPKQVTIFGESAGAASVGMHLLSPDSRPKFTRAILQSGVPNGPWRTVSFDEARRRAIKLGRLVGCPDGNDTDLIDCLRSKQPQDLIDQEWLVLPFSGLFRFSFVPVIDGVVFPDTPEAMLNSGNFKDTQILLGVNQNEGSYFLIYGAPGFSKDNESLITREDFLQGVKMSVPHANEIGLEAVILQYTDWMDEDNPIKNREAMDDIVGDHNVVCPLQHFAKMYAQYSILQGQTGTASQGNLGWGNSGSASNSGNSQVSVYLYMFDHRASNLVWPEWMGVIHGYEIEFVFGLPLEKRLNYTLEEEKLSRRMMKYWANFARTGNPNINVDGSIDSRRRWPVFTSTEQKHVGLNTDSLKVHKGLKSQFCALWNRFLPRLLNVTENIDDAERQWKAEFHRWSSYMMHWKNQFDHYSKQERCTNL
T1 sequence (P81908 whole entry): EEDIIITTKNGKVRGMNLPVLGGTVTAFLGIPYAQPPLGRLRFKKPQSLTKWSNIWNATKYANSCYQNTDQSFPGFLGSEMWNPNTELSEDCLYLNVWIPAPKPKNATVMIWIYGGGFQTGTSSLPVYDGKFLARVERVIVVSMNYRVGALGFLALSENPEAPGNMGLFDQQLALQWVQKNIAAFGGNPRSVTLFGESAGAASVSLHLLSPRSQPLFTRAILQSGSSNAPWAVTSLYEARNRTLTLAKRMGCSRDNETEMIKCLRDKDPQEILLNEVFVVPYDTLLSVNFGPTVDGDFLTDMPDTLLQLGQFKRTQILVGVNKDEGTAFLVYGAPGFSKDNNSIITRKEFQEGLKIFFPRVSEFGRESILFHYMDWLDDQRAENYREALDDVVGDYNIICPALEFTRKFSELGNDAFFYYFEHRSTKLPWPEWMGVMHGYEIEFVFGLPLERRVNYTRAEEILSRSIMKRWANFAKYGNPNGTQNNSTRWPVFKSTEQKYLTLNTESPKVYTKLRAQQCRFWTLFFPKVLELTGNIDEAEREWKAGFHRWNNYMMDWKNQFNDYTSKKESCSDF
Cholinesterase (Equus caballus), sequence (P81908 whole entry): as above
Histamine H3 receptor, sequence (Q9Y5N1 whole entry): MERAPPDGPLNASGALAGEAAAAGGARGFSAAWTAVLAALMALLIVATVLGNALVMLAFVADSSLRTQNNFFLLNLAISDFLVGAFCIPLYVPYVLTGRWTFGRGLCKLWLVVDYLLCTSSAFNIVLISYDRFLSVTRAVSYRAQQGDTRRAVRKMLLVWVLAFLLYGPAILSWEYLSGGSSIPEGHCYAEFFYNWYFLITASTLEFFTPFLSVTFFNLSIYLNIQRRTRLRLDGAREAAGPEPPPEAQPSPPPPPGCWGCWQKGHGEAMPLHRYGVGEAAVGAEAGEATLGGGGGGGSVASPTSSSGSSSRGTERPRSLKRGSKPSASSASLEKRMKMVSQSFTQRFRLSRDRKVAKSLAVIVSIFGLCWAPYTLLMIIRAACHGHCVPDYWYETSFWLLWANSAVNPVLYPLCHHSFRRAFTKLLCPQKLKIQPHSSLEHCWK

As a reminder, the IC50 is the concentration that gives 50% inhibition. Low readings indicate greater potency in that assay, high ones weaker potency in that assay. In turn, `c1cc2c(cc1OCCCN1CCCCC1)CN1CCCC1=N2` displayed an IC50 in experiment [1] of 8.2 µM.
For `Clc1ccc(OCCCCCCN2CCCCCC2)cc1`, the IC50 in experiment [2] was determined as 3.74 µM; in experiment [3] it was 3.88 µM.
The corresponding values for `Clc1ccc(OCCCOCCCN2CCCCCC2)cc1` are 4.97 µM and 7.91 µM.
The inhibition is how much of the control response was suppressed. In turn, `Clc1ccc(OCCCCCCCN2CCCCC2)cc1` registered an inhibition in experiment [4] of under 50%. Moreover, the IC50 was over 10 µM in experiment [2] and 3.94 µM in experiment [3].
On the same counts, the results for `CC1CCCN(CCCCCCOc2cccc(Cl)c2)C1` (stereo not given) are under 50%, over 10 µM and 6.22 µM.
Turning to `CC1CCN(CCCCCCOc2ccc(Cl)cc2)CC1`, the IC50 in [2] stood at 5.43 µM; in experiment [3], 8.11 µM.
`CC1CCN(CCCCCCCOc2ccc(Cl)cc2)CC1`: the IC50 in [2] turned out to be 2.92 µM; in experiment [3], 2.74 µM.
On the same counts, the results for `Clc1cccc(OCCCCCCCN2CCCCC2)c1` are 4.75 µM and 5.33 µM.
With `Clc1cccc(OCCCCCCN2CCCCCC2)c1`, the IC50 in experiment [2] was 2.43 µM; in [3], 5.4 µM.
Take `CC1CCCN(CCCCCCOc2ccc(Cl)cc2)C1` (stereo not given): in experiment [4], the inhibition is under 50%. The results for the IC50 in [2] and in experiment [3] were over 10 µM and 4.8 µM, respectively.
For `CC1CCN(CCCCCOc2ccc(Cl)cc2)CC1`, the inhibition in [5] and in experiment [4] was under 50% each time. Moreover, the IC50 in experiment [2] and in experiment [3] was over 10 µM in each case.
`CC1CCN(CCCCCCOc2cccc(Cl)c2)CC1`: the IC50 in [2] came out at 3.53 µM; in experiment [3] it was 7.31 µM.
Regarding `CC1CCCN(CCCCCCCOc2ccc(Cl)cc2)C1` (stereo not given), in experiment [4], the inhibition was under 50%. Moreover, the inhibition entry in [6] was “Active”. The IC50 in experiment [2] is over 10 µM; in [3], 4.51 µM.
For `Clc1cccc(OCCCCCCCN2CCCCCC2)c1`, the IC50 in [2] was found to be 0.9 µM; in experiment [3], 2.42 µM.
In [5], `Clc1ccc(OCCCCCN2CCCCCC2)cc1` returned an inhibition of under 50%. Besides, the IC50 in experiment [2] was 3.45 µM; in [3], over 10 µM.
On to `Clc1ccc(OCCCCCCCN2CCCCCC2)cc1`, for which the inhibition entry in experiment [7] and in experiment [8] was “Active” each time. The values for the IC50 in experiment [2] and in experiment [3] were 1.64 µM and 1.93 µM, respectively.
What is called Ki is a measure of affinity in units of concentration, obtained from inhibition or displacement. `CC1CCCN(CCCCCCCOc2cccc(Cl)c2)C1` (stereo not given) displayed a Ki in [9] of 0.446 µM. Moreover, the figures for the IC50 in [2] and in experiment [3] were 5.15 µM and 3.8 µM, respectively.
In experiment [4], `CC1CCCN(CCCCCOc2ccc(Cl)cc2)C1` (stereo not given) yielded an inhibition of under 50%. Moreover, the IC50 is over 10 µM in experiment [2] and 23.6 µM in [3].
With `Clc1ccc(OCCCCCCN2CCCCC2)cc1`, the inhibition in experiment [5] and in experiment [4] was under 50% in each case. Further, the IC50 in experiment [2] and in experiment [3] was over 10 µM each time.
`Clc1cccc(OCCCCCCN2CCCCC2)c1` showed an inhibition in experiment [4] of under 50%. Moreover, the IC50 in experiment [2] is over 10 µM; in [3], 18.6 µM.
Regarding `Clc1ccc(OCCCCCN2CCCCC2)cc1`, the inhibition in experiment [5] and in experiment [4] was under 50% in each case. The IC50 in [2] and in experiment [3] was over 10 µM each time.
Take `CC1CCN(CCCCCCCOc2cccc(Cl)c2)CC1`: the results for the IC50 in experiment [2] and in [3] were 1.66 µM and 4.9 µM, respectively.
